Experiments:
[1] = system: faecal microbiota; assay: Faecal batch culture with antibiotics promoting CRE colonisation: 16S rRNA gene sequencing and qPCR; assay type: cell-based, human; conditions: 11 healthy donors, antibiotic at faecal concentration, 24 hours anaerobic
Method: (§1) The inventors performed faecal culture experiments to measure the effects of eight broad-spectrum antibiotics on the faecal microbiota collected from 11 healthy human donors. Faecal culture experiments were performed under anaerobic conditions using a complex gut growth medium that was designed to mimic the nutrients found in the human distal gut (McDonald, J. A. et al. Evaluation of microbial community reproducibility, stability and composition in a human distal gut chemostat model. J. Microbiol. Methods 95, 167-174 (2013)). […] Moon, Y. S., Chung, K. C. & Gill, M. A. Pharmacokinetics of meropenem in animals, healthy volunteers, and patients. Clin Infect Dis 24, S249-S255 (1997). Kager, L., Brismar, B., Malmborg, A. S. & Nord, C. E. Imipenem concentrations in colorectal surgery and impact on the colonic microflora. Antimicrob Agents Chemother 33, 204-8 (1989). Pletz, M. et al. Ertapenem pharmacokinetics and impact on intestinal microflora, in comparison to those of ceftriaxone, after multiple dosing in male and female volunteers. Antimicrob Agents Chemother 48, 3765-72 (2004). Nord, C. E., Brismar, B., Kasholm-Tengve, B. & Tunevall, G. Effect of piperacillin/tazobactam treatment on human bowel microflora. J Antimicrob Chemother 31, 61-5 (1993). […] Antimicrob Agents Chemother 63, 2244 (2019). Pessôa de Menezes e Silva, C H. Elaboration and evaluation of a new screening medium for detection and presumptive identification of extended-spectrum beta-lactamase-producing organisms (ESBL). Braz J Microbiol 31, 271-274 (2000). Brismar, B., Edlund, C., Malmborg, A. S. & Nord, C. […] Antimicrob Agents Chemother 34, 481-3 (1990)). Cultures were incubated anaerobically at 37° C. for 24 hours. Samples were analysed by ^1H-NMR spectroscopy (for nutrient and metabolite profiling) and […] rRNA gene sequencing with 16S rRNA gene qPCR (for bacterial composition and biomass) (McDonald, J. A. K. et a/. Inhibiting Growth of Clostridioides difficile by Restoring Valerate, Produced by the Intestinal Microbiota. Gastroenterology 155, 1495-1507 (2018)).

[2] = system: faecal microbiota; assay: Faecal batch culture with antibiotics promoting CRE colonisation: 1H-NMR of nutrients and metabolites; assay type: cell-based, human; conditions: 11 healthy donors, antibiotic at faecal concentration, 24 hours anaerobic
Method: as §1
Supernatants were prepared from faeces by vortexing 300 mg of faeces in 900 μl of HPLC-grade water for 10 minutes at 3000 rpm followed by centrifugation at 17,000×g for 10 minutes at 4° C. Supernatants were prepared from faecal culture samples by centrifugation at 17,000×g for 10 minutes at 4° C. Supernatants were frozen at −80° C. until they were ready for analysis.
^1H-NMR spectroscopy was performed as previously described (McDonald, J. A. K. et al. Inhibiting Growth of Clostridioides difficile by Restoring Valerate, Produced by the Intestinal Microbiota. Gastroenterology 155, 1495-1507 (2018)). Briefly, sample supernatants were randomized and defrosted at room temperature for 1 hour. Sample supernatants were then centrifuged for 10 min at 17 000×g and 4° C. The pellet was discarded and 400 μl of supernatant was added to 250 μl NMR buffer (28.85 g Na2HPO4, 5.25 g NaH2PO4, 1 mM TSP, 3 mM NaN3, deuterium oxide to 1 L, pH 7.4). 600 μl of sample was used to fill each 5 mm NMR tube to be loaded into the SampleJet system.
^1H-NMR spectroscopy was performed using the Bruker AVANCE III HD 800 MHz spectrometer (Bruker Bio-Spin, Rheinstetten, Germany). 1D spectra (a standard NOESYGPPR1D pulse sequence (RD-90°-t1-90°-tm-90°-ACQ)) as well as 2D spectra (standard 2D JRESGPPRQF pulse sequence) were acquired. A recycle delay of 4 seconds and mixing time of 100 ms was used. The 90° pulse length was approximately 10 μs and 32 scans were recorded.
NMR spectra were imported into MATLAB r2019b (The Mathworks, USA) using an in-house script. Spectra were aligned and the water (4.6-5 ppm) and TSP (−0.2-0.2 ppm) peaks were cut. Compounds were identified by comparison to spectral databases in Chenomx NMR Suite (Chenomx, Canada). Representative peaks were integrated for quantification of compounds.

| Molecule | Change in abundance of bacterial families relative to antibiotic-naive faecal cultures [1] | Change in butyrate concentration in faecal cultures [2] |
| --- | --- | --- |
| piperacillin/tazobactam [TZP] | decreased the abundance of Bifidobacteriaceae and Bacteroidaceae | decreased |
| CO/N=C(\C(=O)N[C@@H]1C(=O)N2C(C(=O)O)=C(CSc3nc(=O)c(=O)[nH]n3C)CS[C@H]12)c1csc(N)n1 [CRO, ceftriaxone] | decreased the abundance of Bifidobacteriaceae | decreased |
| CO/N=C(\C(=O)N[C@@H]1C(=O)N2C(C(=O)O)=C(COC(C)=O)CS[C@H]12)c1csc(N)n1 [CTX, cefotaxime] | decreased the abundance of Bifidobacteriaceae | increased |
| CC(C)(O/N=C(\C(=O)N[C@@H]1C(=O)N2C(C(=O)[O-])=C(C[n+]3ccccc3)CS[C@H]12)c1csc(N)n1)C(=O)O [CAZ, ceftazidime] | decreased the abundance of Bifidobacteriaceae | increased |
